Results published in patent publication US20260306495A1, “COMBINATION OF CAPIVASERTIB, A CDK4/6 INHIBITOR AND FULVESTRANT FOR USE IN THE TREATMENT OF BREAST CANCER” (AstraZeneca AB, priority 2023, published 2026).
Values belong to the compound of their own block, whether it stands above or below them.

Columns and labels:
[1] = Pharmacokinetics, palbociclib triplet, CAPItello-292 Phase Ib; type: in vivo, human
Procedure: In the open-label Phase Ib part of the study: • The initial palbociclib cohort will receive capivasertib (320 mg oral twice daily, 4 days on and 3 days off for 4 weeks), palbociclib (125 mg, oral once daily, dosed continually for 21 days out of 28 days), and fulvestrant (500 mg intramuscular injection [IM] monthly [Day 1 of a 28-day cycle] with a loading dose of 500 mg 2 weeks after the first dose). • The initial ribociclib cohort will explore the combination of capivasertib (400 mg oral twice daily, 4 days on and 3 days off for 4 weeks), ribociclib (400 mg, oral once daily, dosed continually for 21 days out of 28 days), and fulvestrant (500 mg IM monthly [Day 1 of a 28-day cycle] with a loading dose of 500 mg 2 weeks after the first dose). • The initial abemaciclib cohort will explore the combination of capivasertib (400 mg oral twice daily, 4 days on and 3 days off for 4 weeks), abemaciclib (100 mg, oral twice daily, 28 days out of 28 days), and fulvestrant (500 mg IM monthly [Day 1 of a 28-day cycle] with a loading dose of 500 mg 2 weeks after the first dose).
At the time of data cut-off of 31 Oct. 2022, 39 patients had been treated with capivasertib in combination with palbociclib and fulvestrant across three dose levels. Dose 1 opened first; dose levels 2 and 3 opened simultaneously: • Dose level 1: capivasertib 320 mg+palbociclib 125 mg+fulvestrant 500 mg • Dose level 2: capivasertib 400 mg+palbociclib 100 mg+fulvestrant 500 mg • Dose level 3: capivasertib 400 mg+palbociclib 125 mg+fulvestrant 500 mg

[2] = Pharmacokinetics, ribociclib triplet (preliminary modelling from clinical data); type: in vivo, human; conditions: for Increase of capivasertib AUC vs historical monotherapy data: preliminary modelling from clinical data
Procedure: In the open-label Phase Ib part of the study: • The initial palbociclib cohort will receive capivasertib (320 mg oral twice daily, 4 days on and 3 days off for 4 weeks), palbociclib (125 mg, oral once daily, dosed continually for 21 days out of 28 days), and fulvestrant (500 mg intramuscular injection [IM] monthly [Day 1 of a 28-day cycle] with a loading dose of 500 mg 2 weeks after the first dose). • The initial ribociclib cohort will explore the combination of capivasertib (400 mg oral twice daily, 4 days on and 3 days off for 4 weeks), ribociclib (400 mg, oral once daily, dosed continually for 21 days out of 28 days), and fulvestrant (500 mg IM monthly [Day 1 of a 28-day cycle] with a loading dose of 500 mg 2 weeks after the first dose). • The initial abemaciclib cohort will explore the combination of capivasertib (400 mg oral twice daily, 4 days on and 3 days off for 4 weeks), abemaciclib (100 mg, oral twice daily, 28 days out of 28 days), and fulvestrant (500 mg IM monthly [Day 1 of a 28-day cycle] with a loading dose of 500 mg 2 weeks after the first dose). […]

[3] = system: participants with locally advanced (inoperable) or metastatic HR+/HER2− breast cancer; assay: Dose-limiting toxicities (DLTs), CAPItello-292 Phase Ib, palbociclib triplet; type: in vivo, human; conditions: triplet with capivasertib and fulvestrant
Description: The Phase Ib part of the study consists of an open-label, 3-arm dose finding phase to determine the safe and well tolerated doses and schedules (RP3D) of capivasertib plus CDK4/6i (palbociclib, ribociclib, or abemaciclib) and fulvestrant (the latter administered at fixed dose and schedule, as per label) as triplet combinations in participants with ABC. The maximum tolerated doses (MTD) may also be determined. […]

[4] = Pharmacokinetics, Japanese participants; type: in vivo, human (Japanese); conditions: 100 mg oral (Japanese) vs 125 mg oral (rest of the world), with capivasertib 400 mg; preliminary limited data
Description: (§1) For the Phase Ib part of the study, participants must be eligible for fulvestrant therapy and at least one of the following: palbociclib, ribociclib, or abemaciclib, as per local investigator assessment. Participants who received treatment with at least one prior endocrine therapy (alone or in combination) for ABC and a maximum of 2 lines prior chemotherapy (for global participants) or up to 1 prior line of chemotherapy (for Japanese participants) are eligible. […]

Japanese participants = assay: DLTs, Japanese participants; type: in vivo, human (Japanese); conditions: capivasertib + palbociclib 125 mg + fulvestrant
Description: as §1

[5] = Yu Y, et al. J Clin Pharmacol 2017; 57 (2): 173-184; cited from earlier work

Increase of capivasertib AUC vs historical monotherapy data ([2]; with ribociclib 400 mg, 95% CI 1% to 43%): 19%
Increase of capivasertib AUC vs historical monotherapy data ([2]; with ribociclib 600 mg, 95% CI 0% to 34%): 16%
SMILES: NC1(C(=O)N[C@@H](CCO)c2ccc(Cl)cc2)CCN(c2ncnc3[nH]ccc23)CC1 [capivasertib, (S)-4-amino-N-(1-(4-chlorophenyl)-3-hydroxypropyl)-1-(7H-pyrrolo[2,3-d]pyrimidin-4-yl) piperidine-4-carboxamide]
PK of capivasertib versus previous monotherapy data ([1]; in combination with palbociclib and fulvestrant): consistent with previous monotherapy data

Ribociclib exposure vs published population PK model ([2]; with capivasertib, consistent with DDI predictions based on capivasertib as a weak CYP3A inhibitor): generally within model predictions
SMILES: CN(C)C(=O)c1cc2cnc(Nc3ccc(N4CCNCC4)cn3)nc2n1C1CCCC1 [ribociclib, 7-cyclopentyl-N,N-dimethyl-2-{[5-(1-piperazinyl)-2-pyridinyl]amino}-7H-pyrrolo[2,3-d]pyrimidine-6-carboxamide]

SMILES: CC(=O)c1c(C)c2cnc(Nc3ccc(N4CCNCC4)cn3)nc2n(C2CCCC2)c1=O [palbociclib, 6-acetyl-8-cyclopentyl-5-methyl-2-{[5-(1-piperazinyl)-2-pyridinyl]amino}pyrido[2,3-d]pyrimidin-7 (8H)-one]
Cause of the most frequent DLT (neutropenia/neutrophil count decreased) [3]: driven by palbociclib
Palbociclib AUC accumulation, Day 11/Day 1 ratio ([1]; Cycle 1 Day 11 / Cycle 0 Day 1, with capivasertib and fulvestrant, 90% CI): 2.89 (90% CI 2.64-3.15)
Palbociclib AUC accumulation, Day 14/Day 1 ratio ([1]; Cycle 1 Day 14 / Cycle 0 Day 1, with capivasertib and fulvestrant, 90% CI): 2.77 (90% CI 2.54-3.03)
Increase of palbociclib area under curve (AUC) by capivasertib ([1]; based on observed and expected accumulation from Cycle 0, Day 1 to Cycle 1, Day 11 and Day 14): approximately 20%
Mean palbociclib plasma exposure, Japanese participants vs rest of the world [4]: roughly similar
Incidence of DLTs (febrile neutropenia) (Japanese participants): led to palbociclib dose de-escalation from 125 mg to 100 mg
Palbociclib expected accumulation ratio [5]: 2.4
